Results published in patent publication US10993923B2, “Method for ameliorating fibrosis using 1-[4-chloro-3-(trifluoromethyl)phenyl]-3-[3-(4-cyanophenoxy)phenyl]urea” (priority 2016, dated 2021).

How the values were obtained:
[1] = system: BDL-induced cholestasis fibrosis in mice; experiment: Bile duct ligation (BDL) fibrosis mice treatment model; assay type: in vivo, Balb/C mice; conditions: 10 mg/kg from day 8 until sacrifice on day 14 following BDL; FIG. 13C, 13D
Source text: In the bile duct ligation (BDL) mouse model, the common bile duct of Balb/C mice was double-ligated and excised. Mice were fed daily with vehicle or 1-[4-chloro-3-(trifluoromethyl)phenyl]-3-[3-(4-cyanophenoxy)phenyl]urea on day 1 or day 8 until they were sacrificed on day 14.
The mice liver samples were stored in 10% formaldehyde, dehydrated with gradient alcohol, embedded in paraffin blocks, sectioned to a thickness of 3 μm, placed on glass slides, and stained with Picrosirius Red Stain kit (ScyTek, USA), following the manufacturer's instructions. The severity of liver fibrosis was graded according to the Ishak fibrosis score. Quantitative collagen-positive area (qCPA) was determined by densitometry via ImageJ software. Hepatic hydroxyproline concentrations were measured by the hydroxyproline assay kit (Biovision, USA), following the manufacturer's instructions Immunohistochemistry was performed by the Leica BOND-MAX automatic chromatograph (Leica Biosystems, Germany), following the manufacturer's instructions.

[2] = system: human lung epithelial cells (A549 cell line); experiment: TGF-β1-induced epithelial mesenchymal transition (EMT) in A549 cells; assay type: cell-based
Procedure: Murine NIH3T3 fibroblasts and human lung epithelial cells (A549 cells) were purchased from the Bioresource Collection and Research Center (Hsinchu, Taiwan). Cells were cultured in Dulbecco's modified eagle medium (DMEM) containing 10% fetal bovine serum (FBS), 100 μg/mL penicillin, 100 μg/mL streptomycin. Cells were cultured at 37° C. in a humidified atmosphere of 5% CO2 and passaged every 4 to 5 days at 1:4 ratios.
Whole-cell extracts were obtained via RIPA buffer (Millipore, USA) and protein concentrations were quantified via a BCA protein assay kit (Thermo Fisher Scientific, USA). 20 or 25 μg of protein was added to various percentages of SDS-sodium dodecyl sulfate-acrylamide gel and blotted onto a polyvinylidene fluoride (PVDF) membrane. The membrane was then reacted with a primary antibody; after extensive washing, the membrane was reacted with a […] containing a second antibody. Proteins were detected by Immobilon Western Chemiluminescent HRP substrate (Millipore, USA) or ECL detection system (UVP Corporation, USA).
Antibodies for immunoblotting techniques such as anti-E-cadherin, anti-Fibronectin, anti-N-cadherin were purchased from Abcam (UK). Other antibodies such as anti-SHP-1, anti-phosphorylated STAT3(Tyr705), anti-STAT3α-smooth muscle actin (α-SMA) and anti-caspase-9 were purchased from Cell Signaling Corporation ([…], United States).
Smart-pool siRNA, including control (sc-37007) siRNA, siRNA anti-SHP-1, and STAT3, were purchased from Santa Cruz Biotechnology (California, USA).

[3] = system: PDGFR and STAT3 pathways in HSC-T6 cells; experiment: Western blot of signalling proteins in HSC-T6 cells; assay type: cell-based, rat
Procedure: Rat immortal hepatic stellate cell line HSC-T6 and LX2 human hepatic stellate cell line were provided by Professor Scott Friedman of Mount Sinai Hospital in New York, USA. The primary mouse HSCs were obtained via the way: after intubating the hepatic portal vein of the mouse, the cells were perfused with Leffert's and ethylene glycol bis-aminoethyl ether tetraacetic acid (EGTA) buffer in situ, and then collagenase was injected to digest the liver tissue, and then the primary mouse HSCs were isolated by Histodnz gradient. HSC-T6 cells were cultured in Waymouth medium; LX2 cells and primary mouse HSCs were cultured in Dulbecco's Modified Eagle Medium (DMEM) containing 10% fetal bovine serum (FBS), 100 μg/mL penicillin, 100 μg/mL streptomycin, and 2 mM L-glutamine HSC-T6 cells, LX2 cells and primary mouse HSCs were cultured in a humidified incubator containing 5% carbon dioxide at 37° C. After adding the FBS, the resting HSC is started. […]
Whole-cell extracts were obtained via RIPA buffer (Millipore, USA) and protein concentrations were quantified via a BCA protein assay kit (Thermo Fisher Scientific, USA). […] Proteins were detected by Immobilon Western Chemiluminescent HRP substrate (Millipore, USA) or ECL detection system (UVP Corporation, USA). […]

[4] = system: LX2 cells; experiment: Cell viability (MTS), LX2 cells; assay type: cell-based, human; conditions: 24 hours; effect more significant than sorafenib; FIG. 14A
Procedure: (§1) Rat immortal hepatic stellate cell line HSC-T6 and LX2 human hepatic stellate cell line were provided by Professor Scott Friedman of Mount Sinai Hospital in New York, USA. The primary mouse HSCs were obtained via the way: after intubating the hepatic portal vein of the mouse, the cells were perfused with Leffert's and ethylene glycol bis-aminoethyl ether tetraacetic acid (EGTA) buffer in situ, and then collagenase was injected to digest the liver tissue, and then the primary mouse HSCs were isolated by Histodnz gradient. […]
(§2) HSC-T6 cells, LX2 cells or primary mouse HSCs cells were seeded in 96-well plates (5,000 cells/well) for 24 hours, and the cells were treated with various concentrations of 1-[4-chloro-3-(trifluoromethyl)phenyl]-3-[3-(4-cyanophenoxy)phenyl]urea or Sorafenib for 24 or 48 hours. The effect of each reagent on the cell viability and the cell were evaluated by CellTiter 96 AQueous one solution of 3-(4,5-dimethylthiazol-2-yl)-5-(3-carboxymethoxyphenyl)-2-(4-sulfophenyl)-2H-tetra zolium, an inner, MTS (Promega, USA). […] The proportion of apoptotic cells was mixed the early (Annexin V+/PI−) and the late (Annexin V+/PI+) apoptotic cells measured by BD FACS Verse flow cytometry (BD, USA).

[5] = system: HSC-T6 cells; experiment: Cell viability (MTS), HSC-T6 cells; assay type: cell-based, rat; conditions: 24 hours; effect more significant than sorafenib; FIG. 14A
Procedure: as §1, §2

N#Cc1ccc(Oc2cccc(NC(=O)Nc3ccc(Cl)c(C(F)(F)F)c3)c2)cc1 [1-[4-chloro-3-(trifluoromethyl)phenyl]-3-[3-(4-cyanophenoxy)phenyl]urea]
quantitative collagen-positive area (qCPA) [1]: significantly reduced
effects of the compound (p-STAT3, EMT marker, migration and invasion) after SHP-1 knock out with siRNA ([2]; A549, FIG. 9B): offset the effects
effects of the compound (EMT marker, migration and invasion) after STAT3 knock out ([2]; A549, FIG. 9C): offset the effects
TGF-β1-induced EMT (EMT marker profile) ([2]; A549 exposed to TGF-β1, FIG. 8B): reversed TGF-β1-induced EMT in a dose-dependent manner
migration and invasion of cells ([2]; A549 exposed to TGF-β1, FIGS. 8C and 8D): reduced
p-PDGFR and p-Akt in the PDGFR pathway ([3]; 10 μM for 4 hours, then PDGF-BB 100 ng/mL 10 minutes, FIG. 14E): downregulated
downregulation of p-STAT3 and cyclin D1, compared with sorafenib ([3]; FIG. 15A): more significant dose-escalation effects on the downregulation
viability of LX2 cells [4]: dose-dependent effects to reduce the viability
viability of HSC-T6 cells [5]: dose-dependent effects to reduce the viability
